Laboratory results as given in article PMC12992618 (Nature Communications, 2026).

Experiments:
BRAF = target: T1, BRAF (Homo sapiens, UniProt P15056, V600E); test: BRAF-IP kinase assay after […] h cell treatment; assay type: cell-based
T1 construct: endogenous BRAF immunoprecipitated from HCC364 cells

CRAF = target: T2, CRAF (Homo sapiens, UniProt P04049); test: CRAF-IP kinase assay after […] h cell treatment; assay type: cell-based
T2 construct: gene RAF1; endogenous CRAF immunoprecipitated from NCI-H1666 and NCI-H2405 cells
T2 sequence (P04049 whole entry): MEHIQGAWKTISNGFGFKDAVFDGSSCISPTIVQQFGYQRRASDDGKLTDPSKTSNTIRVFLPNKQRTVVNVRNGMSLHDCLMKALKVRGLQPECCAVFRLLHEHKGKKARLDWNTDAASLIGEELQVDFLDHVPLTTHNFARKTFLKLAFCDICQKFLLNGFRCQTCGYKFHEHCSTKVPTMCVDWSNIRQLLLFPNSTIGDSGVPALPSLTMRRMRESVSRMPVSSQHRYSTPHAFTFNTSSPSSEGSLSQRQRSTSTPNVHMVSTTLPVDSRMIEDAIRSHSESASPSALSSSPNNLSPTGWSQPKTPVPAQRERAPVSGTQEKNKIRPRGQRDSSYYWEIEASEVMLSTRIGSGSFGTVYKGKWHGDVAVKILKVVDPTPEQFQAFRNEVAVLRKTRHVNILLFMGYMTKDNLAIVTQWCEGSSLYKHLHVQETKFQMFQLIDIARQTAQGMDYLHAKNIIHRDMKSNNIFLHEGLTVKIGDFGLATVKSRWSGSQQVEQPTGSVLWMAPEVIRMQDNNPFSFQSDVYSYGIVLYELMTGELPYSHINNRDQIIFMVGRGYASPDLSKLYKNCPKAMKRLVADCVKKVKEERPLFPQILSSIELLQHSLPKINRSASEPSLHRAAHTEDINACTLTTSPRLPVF

T1 sequence (P15056 2-766 V600E): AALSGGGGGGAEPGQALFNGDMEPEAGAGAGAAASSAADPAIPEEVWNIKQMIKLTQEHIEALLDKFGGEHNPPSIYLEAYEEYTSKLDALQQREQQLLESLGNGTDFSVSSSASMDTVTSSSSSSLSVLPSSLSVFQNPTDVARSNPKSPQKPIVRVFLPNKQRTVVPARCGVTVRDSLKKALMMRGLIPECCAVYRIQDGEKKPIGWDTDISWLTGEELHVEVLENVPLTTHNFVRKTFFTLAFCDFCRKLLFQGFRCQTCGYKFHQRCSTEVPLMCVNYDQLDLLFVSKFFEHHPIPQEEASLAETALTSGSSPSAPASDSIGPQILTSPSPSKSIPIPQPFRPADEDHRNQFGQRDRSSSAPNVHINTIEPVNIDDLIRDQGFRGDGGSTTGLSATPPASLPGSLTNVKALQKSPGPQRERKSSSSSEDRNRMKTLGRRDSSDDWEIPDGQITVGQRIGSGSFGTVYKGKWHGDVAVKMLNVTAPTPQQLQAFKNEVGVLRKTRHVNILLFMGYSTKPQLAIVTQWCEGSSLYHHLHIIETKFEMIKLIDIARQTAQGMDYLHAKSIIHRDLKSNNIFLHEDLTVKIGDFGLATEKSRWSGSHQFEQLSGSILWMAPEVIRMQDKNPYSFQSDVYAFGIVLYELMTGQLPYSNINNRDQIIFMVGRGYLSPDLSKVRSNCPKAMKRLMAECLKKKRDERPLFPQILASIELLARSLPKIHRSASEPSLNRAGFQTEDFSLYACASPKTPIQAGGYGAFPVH

Compound: Cc1ccc2c(Nc3cccc(Cl)c3F)nccc2c1NC(=O)c1csc2c(N)ncnc12 [belvarafenib]
- BRAF-IP kinase assay after 4 h cell treatment (BRAF): Exarafenib and belvarafenib exhibit potent inhibition of BRAF kinase activity in Class I and II BRAF mutations
- CRAF-IP kinase assay after 4 h cell treatment (CRAF): baseline CRAF kinase activity was strongly detected in NCI-H1666 cells and was significantly inhibited by exarafenib and belvarafenib
